We go through eight compounds from patent US9376408B2, “Therapeutic thiazolidinone compounds” (Merck Sharp & Dohme Corp., priority 2012, dated 2016).

Structures are written as SMILES. Where two headings read alike, the source gives them in different places.

Test [1] has as its target T1, endogenous CETP from serum (Homo sapiens, UniProt P11597).
T1 construct: yielding a concentration of approximately 15 nM endogenous CETP in the assay; from tissue; host or cells: human serum
T1 sequence (P11597 18-493): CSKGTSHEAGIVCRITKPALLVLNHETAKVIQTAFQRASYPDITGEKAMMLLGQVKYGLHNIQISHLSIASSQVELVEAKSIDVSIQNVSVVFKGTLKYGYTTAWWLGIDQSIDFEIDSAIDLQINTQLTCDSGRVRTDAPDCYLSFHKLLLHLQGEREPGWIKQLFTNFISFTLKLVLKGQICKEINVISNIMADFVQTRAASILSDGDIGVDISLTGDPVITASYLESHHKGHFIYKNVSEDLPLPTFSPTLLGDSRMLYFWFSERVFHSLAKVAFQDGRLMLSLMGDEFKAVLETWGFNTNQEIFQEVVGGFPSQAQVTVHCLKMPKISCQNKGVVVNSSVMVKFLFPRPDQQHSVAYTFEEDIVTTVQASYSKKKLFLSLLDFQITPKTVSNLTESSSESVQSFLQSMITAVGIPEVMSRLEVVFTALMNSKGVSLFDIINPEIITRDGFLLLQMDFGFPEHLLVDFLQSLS
The test is described as follows: RTA assay in 95% human serum (CETP-catalyzed CE and TG transfer, endogenous CETP from serum). The format is biochemical. How it is done: In Vitro Radioactive Assays of CETP-Catalyzed CE and TG Transfer (RTA Assay)
Reagents and sources are: [3H] cholesteryl oleate (GE #TRK.886), [3H] Triolein (Perkin-Elmer NET-431), Butylated hydroxyl toluene (Aldrich, #D4740-4), DOPC (Sigma, # P6354), Sodium Bromide (Fisher scientific #S255-500), PEG 8000 (Fisher, #BP233-1), and human HDL (Intracel Corp #RP-036).
An in vitro assay for determining IC50's to identify compounds that inhibit CETP transfer activity is performed based on a modification of a published method (Morton and Zilversmit, (1981) A plasma inhibitor of triglyceride and cholesteryl ester transfer activities, J. Biol. Chem. 256(23), 11992-11995). The ability of inhibitors to alter CETP activity is performed using two different assays: one using recombinant CETP and one using an endogenous plasma source of CETP. Both assays measure the transfer of [3H] cholesteryl oleate or [3H] triolein from exogenous LDL to HDL.
Radiolabeled donor particles are generated by first combining 100 μl of 200 μM butylated hydroxyl toluene in CHCl3, 216 μL of 21.57 mM DOPC in EtOH, and either 500 μCi [3H]-triolein (Perkin Elmer #NET-431) or 500 μCi [3H]-cholesteryl oleate (GE #TRK886) in a glass tube. Reagents are mixed, dried under nitrogen, and then resuspended in 2 mL of 50 mM Tris, 27 μM EDTA at pH 7.4. After a brief vortex, the solution is sonicated until clear and mixed with 20 mL of fresh human serum. The mixture is incubated overnight at 37° C. The [3H] labeled LDL substrate is separated at 1.063 g/ml density by sequential ultracentrifugal flotation in NaBr according to the method of Havel, Eder, et al., 1955, and Chapman, Goldstein, et al., 1981. Once isolated the particles are dialyzed 3× in CETP buffer (50 mM Tris, pH 7.4, 100 mM NaCl, 1 mM EDTA). Human HDL is purchased from Intracel and used as the acceptor particles.
Transfer assays are performed in a 96-well v-bottom polypropylene plate. For the RTA using recombinant CETP (2% RTA), an assay cocktail is prepared with the final concentrations 128 μg/mL HDL, 20 nM rCETP, 2% human serum, and 1×CETP buffer. 1 μL of each test compound diluted in DMSO is added to 47 μL of assay cocktail per well and incubated at 37° C. for 1 hour. To initiate the transfer reaction, 2 μL radiolabeled LDL is added. After an additional 60 min of incubation at 37° C., the transfer action is terminated by precipitation of LDL with an equal volume of 20% W/V PEG 8000. The plates are centrifuged at 2000 rpm for 30 minutes at 4° C. A 40 μL aliquot of the HDL-containing supernatant is transferred to a Packard Optiplate™ with 200 μL of MicroScint™ 20. After mixing, plates are counted by liquid scintillation. Counts present in the supernatant for blanks (wells containing only HDL acceptor, CETP buffer and DMSO) are subtracted from those containing test compounds and used to correct for non-specific transfer.
For the transfer assay using endogenous CETP from serum (95% RTA), the same procedure is used except that human serum is added such that a final concentration of serum of 95% of the total assay volume is achieved, yielding a concentration of approximately 15 nM endogenous CETP in the assay. This is then combined with HDL and CETP buffer and the reaction proceeds as above and is terminated as described.
Comparison of the counts of samples with inhibitors to an uninhibited (DMSO only) positive control yield a percent inhibition. A plot of percent inhibition vs. log of inhibitor concentration, fit to a Sigmoidal 4 parameter equation is used to calculate IC50.
Starting materials are commercially available or are made using known procedures or as shown below. The examples may be synthesized using the general schemes provided below. Synthetic intermediates for making the compounds are made as described below. The data reported for the examples below were generally obtained using the RTA assay in 95% human serum. […]

For test [2] the following is noted: patients on anacetrapib plus baseline statin compared with patients treated with just a statin; cited from earlier work.

As for `COc1ncc(-c2c(C)cc(C(=O)O)cc2C)cc1-c1ccc(C(F)(F)F)nc1CN1C(=O)S[C@H](c2cc(C(F)(F)F)cc(C(F)(F)F)c2)[C@@H]1C` [Example 5, 4-[2′-({(4S,5R)-5-[3,5-bis(trifluoromethyl)phenyl]-4-methyl-2-oxo-1,3-thiazolidin-3-yl}methyl)-2-methoxy-6′-(trifluoromethyl)-3,3′-bipyridin-5-yl]-3,5-dimethylbenzoic acid], the IC50 in test [1] (read-out: IC50) worked out at 25 nM. On the same count and under the same terms, next, `COc1ccc(CCC(=O)O)cc1-c1ccc(C(F)(F)F)nc1CN1C(=O)S[C@H](c2cc(C(F)(F)F)cc(C(F)(F)F)c2)[C@@H]1C` [Example 4, 3-{3-[2-({(4S,5R)-5-[3,5-bis(trifluoromethyl)phenyl]-4-methyl-2-oxo-1,3-thiazolidin-3-yl}methyl)-6-(trifluoromethyl)pyridin-3-yl]-4-methoxyphenyl} propanoic acid]: 300 nM. As for `COc1ccc(-c2ccc(C(=O)O)cc2C)cc1-c1ccc(C(F)(F)F)cc1CN1C(=O)S[C@H](c2cc(C(F)(F)F)cc(C(F)(F)F)c2)[C@@H]1C` [Example 1, 2″-(((4S,5R)-5-(3,5-bis(trifluoromethyl)phenyl)-4-methyl-2-oxothiazolidin-3-yl)methyl)-4′-methoxy-2-methyl-4″-(trifluoromethyl)-[1,1′:3′,1″-terphenyl]-4-carboxylic acid], in test [1] (read-out: RTA (95% HS)), the IC50 worked out at 62 nM. Take `COc1ccc([C@H]2CC[C@H](C(=O)O)CC2)cc1-c1ccc(C(F)(F)F)nc1CN1C(=O)S[C@H](c2cc(C(F)(F)F)cc(C(F)(F)F)c2)[C@@H]1C` [Example 6, trans-4-{3-[2-({(4S,5R)-5-[3,5-bis(trifluoromethyl)phenyl]-4-methyl-2-oxo-1,3-thiazolidin-3-yl}methyl)-6-(trifluoromethyl)pyridin-3-yl]-4-methoxyphenyl} cyclohexanecarboxylic acid]: the IC50 in test [1] (read-out: IC50) stood at 257 nM. `COc1cc(F)c(C(C)C)cc1-c1ccc(C(F)(F)F)cc1CN1C(=O)O[C@H](c2cc(C(F)(F)F)cc(C(F)(F)F)c2)[C@@H]1C` [anacetrapib]: in test [2], the “decrease of LDL-C” value was 40% and the “increase of HDL-C” value is 138%. Turning to `COc1ncc(-c2ccc(C(=O)O)cc2C)cc1-c1ccc(C(F)(F)F)cc1CN1C(=O)S[C@H](c2cc(C(F)(F)F)cc(C(F)(F)F)c2)[C@@H]1C` [Example 7, 4-{5-[2-({(4S,5R)-5-[3,5-bis(trifluoromethyl)phenyl]-4-methyl-2-oxo-1,3-thiazolidin-3-yl}methyl)-4-(trifluoromethyl)phenyl]-6-methoxypyridin-3-yl}-3-methylbenzoic acid], the IC50 in test [1] (read-out: IC50) is 117 nM. Still for that read-out and setting: then `COc1ncc(-c2ccc(C(=O)O)cc2C)cc1-c1ccc(C(F)(F)F)nc1CN1C(=O)S[C@H](c2cc(C(F)(F)F)cc(C(F)(F)F)c2)[C@@H]1C` [Example 3, 4-[2′-({(4S,5R)-5-[3,5-bis(trifluoromethyl)phenyl]-4-methyl-2-oxo 1,3-thiazolidin-3-yl}methyl)-2-methoxy-6′-(trifluoromethyl)-3,3′-bipyridin-5-yl]-3-methylbenzoic acid], with 106 nM; and `COc1ccc(-c2ccc(C(=O)O)cc2C)cc1-c1ccc(C(F)(F)F)nc1CN1C(=O)S[C@H](c2cc(C(F)(F)F)cc(C(F)(F)F)c2)[C@@H]1C` [Example 2, 3′-[2-({(4S,5R)-5-[3,5-bis(trifluoromethyl)phenyl]-4-methyl-2-oxo-1,3-thiazolidin-3-yl}methyl)-6-(trifluoromethyl)pyridin-3-yl]-4′-methoxy-2-methylbiphenyl-4-carboxylic acid], with 39 nM.
